From ChEMBL document CHEMBL4732204, “Multitargeting application of proline-derived peptidomimetics addressing cancer-related human matrix metalloproteinase 9 and carbonic anhydrase II” (Eur J Med Chem, 2021)

Key:
Carbonic anhydrase 2 = Carbonic anhydrase 2 (Homo sapiens, UniProt P00918); experiment: Inhibition of human CA2 incubated for 15 mins by stopped-flow CO2 hydration kinetic assay based Cheng-Prusoff equation analysis
[1] = target: Matrix metalloproteinase-9 (Homo sapiens, UniProt P14780); experiment: Inhibition of MMP9 (unknown origin) using Mca-Lys-Pro-Leu-Gly-Leu-Dpa-Ala-Arg-NH2 as substrate incubated for 5 min followed by substrate addition and measured for 30 mins by fluorescence based assay
Carbonic anhydrase 1 = Carbonic anhydrase 1 (Homo sapiens, UniProt P00915); experiment: Inhibition of human CA1 incubated for 15 mins by stopped-flow CO2 hydration kinetic assay based Cheng-Prusoff equation analysis
[2] = target: 72 kDa type IV collagenase (Homo sapiens, UniProt P08253)
Carbonic anhydrase 12 = Carbonic anhydrase 12 (Homo sapiens, UniProt O43570); experiment: Inhibition of human CA12 incubated for 15 mins by stopped-flow CO2 hydration kinetic assay based Cheng-Prusoff equation analysis
Carbonic anhydrase 9 = Carbonic anhydrase 9 (Homo sapiens, UniProt Q16790); experiment: Inhibition of human CA9 incubated for 15 mins by stopped-flow CO2 hydration kinetic assay based Cheng-Prusoff equation analysis

Sequence of Carbonic anhydrase 1 (P00915 whole entry): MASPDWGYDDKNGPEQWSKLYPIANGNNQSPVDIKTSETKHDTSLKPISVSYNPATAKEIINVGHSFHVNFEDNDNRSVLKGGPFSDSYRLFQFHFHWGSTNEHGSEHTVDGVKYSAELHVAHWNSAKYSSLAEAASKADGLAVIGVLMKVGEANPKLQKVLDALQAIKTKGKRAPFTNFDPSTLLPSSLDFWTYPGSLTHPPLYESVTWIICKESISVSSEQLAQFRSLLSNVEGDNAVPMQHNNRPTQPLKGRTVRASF
Sequence of 72 kDa type IV collagenase (P08253 whole entry): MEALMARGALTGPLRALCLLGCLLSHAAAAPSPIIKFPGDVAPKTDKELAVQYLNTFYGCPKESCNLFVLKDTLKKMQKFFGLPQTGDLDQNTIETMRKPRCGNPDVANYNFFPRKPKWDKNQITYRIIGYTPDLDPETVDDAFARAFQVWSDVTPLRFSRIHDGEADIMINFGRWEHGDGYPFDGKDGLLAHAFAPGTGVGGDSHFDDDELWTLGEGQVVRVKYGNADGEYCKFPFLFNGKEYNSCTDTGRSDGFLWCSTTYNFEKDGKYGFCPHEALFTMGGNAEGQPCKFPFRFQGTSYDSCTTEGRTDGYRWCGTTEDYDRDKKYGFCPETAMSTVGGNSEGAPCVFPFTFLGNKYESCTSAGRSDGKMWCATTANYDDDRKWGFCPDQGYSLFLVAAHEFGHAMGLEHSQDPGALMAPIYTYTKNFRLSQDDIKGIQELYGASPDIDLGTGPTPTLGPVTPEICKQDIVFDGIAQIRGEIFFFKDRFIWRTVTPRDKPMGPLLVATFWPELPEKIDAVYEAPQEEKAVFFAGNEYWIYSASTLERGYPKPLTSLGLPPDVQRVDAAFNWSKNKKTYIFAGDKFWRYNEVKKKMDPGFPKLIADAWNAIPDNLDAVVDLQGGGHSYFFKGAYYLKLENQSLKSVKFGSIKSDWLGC
Sequence of Matrix metalloproteinase-9 (P14780 whole entry): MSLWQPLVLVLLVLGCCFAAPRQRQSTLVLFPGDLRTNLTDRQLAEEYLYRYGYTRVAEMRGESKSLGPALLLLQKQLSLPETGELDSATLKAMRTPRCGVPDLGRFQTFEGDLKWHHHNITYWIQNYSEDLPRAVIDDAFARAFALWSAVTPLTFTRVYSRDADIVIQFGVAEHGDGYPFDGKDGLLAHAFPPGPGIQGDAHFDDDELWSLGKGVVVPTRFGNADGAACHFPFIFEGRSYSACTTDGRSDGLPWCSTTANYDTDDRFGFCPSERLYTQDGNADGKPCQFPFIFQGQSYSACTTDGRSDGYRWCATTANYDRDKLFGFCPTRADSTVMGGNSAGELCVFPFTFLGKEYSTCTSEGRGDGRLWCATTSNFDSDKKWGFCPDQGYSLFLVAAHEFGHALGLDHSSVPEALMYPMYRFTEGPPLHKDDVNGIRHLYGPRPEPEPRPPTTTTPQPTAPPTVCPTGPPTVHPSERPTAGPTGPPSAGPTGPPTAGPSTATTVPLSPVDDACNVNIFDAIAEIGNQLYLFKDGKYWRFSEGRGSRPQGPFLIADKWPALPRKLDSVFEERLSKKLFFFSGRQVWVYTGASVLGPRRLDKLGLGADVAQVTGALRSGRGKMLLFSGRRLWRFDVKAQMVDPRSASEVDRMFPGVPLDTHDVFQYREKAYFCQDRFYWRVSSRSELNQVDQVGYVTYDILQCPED
Sequence of Carbonic anhydrase 12 (O43570 whole entry): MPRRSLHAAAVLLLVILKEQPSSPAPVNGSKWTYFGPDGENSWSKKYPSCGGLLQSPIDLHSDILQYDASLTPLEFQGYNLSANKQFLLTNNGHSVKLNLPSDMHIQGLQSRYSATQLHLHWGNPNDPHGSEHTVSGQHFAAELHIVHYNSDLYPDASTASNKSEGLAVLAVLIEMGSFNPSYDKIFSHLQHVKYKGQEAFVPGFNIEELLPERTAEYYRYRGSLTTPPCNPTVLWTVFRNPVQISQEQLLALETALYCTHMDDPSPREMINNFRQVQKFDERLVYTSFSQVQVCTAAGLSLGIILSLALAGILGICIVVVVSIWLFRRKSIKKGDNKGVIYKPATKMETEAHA

Ki (Carbonic anhydrase 2) [µM]	Ki [1] [µM]	Ki (Carbonic anhydrase 1) [µM]	Ki [2] [nM]	Ki (Carbonic anhydrase 12) [µM]	Ki (Carbonic anhydrase 9) [µM]	SMILES
> 100	> 10	> 100				O=C(NO)[C@H]1C[C@@H](n2cc(-c3ccccc3)nn2)CN1S(=O)(=O)c1ccc(Cl)c(Cl)c1
> 100	> 10	> 100	> 10000			O=C(N[C@H]1C[C@H](C(=O)NO)N(S(=O)(=O)c2ccc(Cl)c(Cl)c2)C1)c1cccs1
> 100	0.091	> 100	131			O=C(N[C@@H]1C[C@H](C(=O)NO)N(S(=O)(=O)c2ccc(Cl)c(Cl)c2)C1)c1cccs1
> 100	0.324	> 100				O=C(/C=C/c1ccco1)N[C@H]1C[C@H](C(=O)NO)N(S(=O)(=O)c2ccc(Cl)c(Cl)c2)C1
> 100	> 10	> 100				O=C(NO)[C@H]1[C@@H](OCc2ccccc2)CCN1S(=O)(=O)c1ccc(Cl)c(Cl)c1
> 100	> 10	> 100	> 10000			CCCCCCO[C@H]1CCN(S(=O)(=O)c2ccc(Cl)cc2)[C@H]1C(=O)NO
> 100	1.55	> 100				O=C(NO)[C@H]1C[C@H](n2cc(-c3ccccc3)nn2)CN1S(=O)(=O)c1ccc(Cl)c(Cl)c1
24.8	0.541	> 100	> 10000	67.2	> 100	O=C(NO)[C@H]1C[C@@H](NS(=O)(=O)c2ccc(-c3ccccc3)cc2)CN1S(=O)(=O)c1ccc(Cl)c(Cl)c1
6.68	0.057	> 100	328	98.5	> 100	O=C(NO)[C@H]1C[C@H](NS(=O)(=O)c2ccc(-c3ccccc3)cc2)CN1S(=O)(=O)c1ccc(Cl)c(Cl)c1
> 100	0.032	> 100	0.044			O=C(Nc1ccc(C(=O)Nc2ccc(S(=O)(=O)N3CCC[C@@H]3C(=O)NO)cc2)cc1)OCc1ccccc1
> 100	0.02	> 100				COc1ccc(S(=O)(=O)N2CCC[C@@H]2C(=O)NO)cc1
6.13	> 100	8.4	> 100000	9.19	20.7	COc1ccc(S(=O)(=O)N2C[C@@H](NS(=O)(=O)c3ccc(-c4ccccc4)cc3)C[C@@H]2C(=O)O)cc1
> 100	0.123	> 100	26			COc1ccc(S(=O)(=O)N2C[C@H](NC(=O)C(C)(C)C)C[C@@H]2C(=O)NO)cc1
> 100	0.473	> 100	2.16			O=C(Nc1ccc(S(=O)(=O)N2CCC[C@@H]2C(=O)NO)cc1)OCc1ccccc1
> 100	3.88	> 100	2260	47	> 100	CS(=O)(=O)N1C[C@@H](NS(=O)(=O)c2ccc(-c3ccccc3)cc2)C[C@@H]1C(=O)NO
> 100	0.294	> 100	54	8.82	21.4	O=C(NO)[C@H]1C[C@H](NS(=O)(=O)c2ccc(-c3ccccc3)cc2)CN1S(=O)(=O)c1ccc(-c2ccccc2)cc1
> 100	0.482	> 100	406	> 100	> 100	COc1ccc(S(=O)(=O)N2C[C@@H](NS(=O)(=O)c3ccc(-c4ccccc4)cc3)C[C@@H]2C(=O)NO)cc1
> 100	0.00011	> 100	0.087			O=C(Nc1ccc(S(=O)(=O)N2CCC[C@@H]2C(=O)NO)cc1)c1ccc([N+](=O)[O-])cc1
> 100	> 100	> 100	> 100000	> 100	> 100	O=C(NO)[C@H]1C[C@H](NS(=O)(=O)c2ccc(-c3ccccc3)cc2)CN1S(=O)(=O)c1ccc(OC(F)(F)F)cc1
> 100	0.00083	> 100	0.25			O=C(NO)[C@H]1CCCN1S(=O)(=O)c1ccc(C#Cc2ccccc2)cc1
44.8	> 100	52.9		> 100	23.3	O=C(NO)[C@H]1C[C@H](NS(=O)(=O)c2ccc(-c3ccccc3)cc2)CN1S(=O)(=O)c1ccc([N+](=O)[O-])cc1
